“Also recorded” adds a separate entry of the source.

Experiment [1] deals with anti-Strep A polyclonal antibodies. Description: Strep A lateral flow immunoassay (Veritor Strep A), sensitivity with sample containing Strep A antigen. Conditions: for sensitivity of the Strep A assay: agent mixed with sample containing Strep A antigen, FIG. 10. Format: binding. The protocol:
FIGS. 1A-1C show the effect of N-propionyl-D-glucosamine on the sensitivity and false positivity of the Veritor™ Strep A assay when analyzing a test sample. The N-propionyl-D-glucosamine was added to the extraction reagent and mixed with porcine mucin, a surrogate of human mucin from saliva for specificity, or with Strep A extract for sensitivity.
(§1) 2-N-butanoyl-D-glucosamide, or Bis-(2-(D-2-deoxy-glucosaminyl))-PEG3-amide were tested for their ability to inhibit or block the binding of the anti-Strep A polyclonal antibodies in the Strep A immunoassay (Veritor™ Strep A assay). Porcine mucin samples were used as a surrogate of human saliva sample, and were tested with an immunoassay test strip for specificity. Using an immunoassay device for detection of Strep A, the effect of 2-N-butanoyl-D-glucosamide, or Bis-(2-(D-2-deoxy-glucosaminyl))-PEG3-amide on the performance of Strep A assay was evaluated using 4× concentration of mucin standard (˜2.5 mg/mL) and Test Standard 1. Either 2-N-butanoyl-D-glucosamide, or Bis-(2-(D-2-deoxy-glucosaminyl))-PEG3-amide was added directly to the sample. Different concentrations of 2-N-butanoyl-D-glucosamide, or Bis-(2-(D-2-deoxy-glucosaminyl))-PEG3-amide in an immunoassay were evaluated for inhibition of Strep A false positive signals.

For experiment [2] the test system is unchanged. Description: Strep A lateral flow immunoassay (Veritor Strep A), false positive signal from porcine mucin samples. Format: binding. The following applies: for false positive signals from porcine mucin samples: agent added directly to the sample, 4x mucin standard (~2.5 mg/mL), FIGS. 5-6. As to the method: as §1, with “Either 2-N-butanoyl-D-glucosamide, or Bis-(2-(D-2-deoxy-glucosaminyl))-PEG3-amide was added directly to the sample.” left out
m-PEG4-glucosamine, m-PEG6-glucosamine, m-PEG10-glucosamine and m-PEG5000-glucosamine were tested for their ability to inhibit or block the binding of the anti-Strep A polyclonal antibodies in the Strep A immunoassay. […] Different concentrations of m-PEG4-glucosamine, m-PEG6-glucosamine, m-PEG10-glucosamine and m-PEG5000-glucosamine in an immunoassay were evaluated for inhibition of Strep A false positive signals.

Experiment [3] relates to Rabbit polyclonal antibodies for Group A Strep. Conditions: previous studies, US 2013/0196337; cited from earlier work.
In experiment [4] the test system is anti-Strep A polyclonal antibodies. Description: Strep A lateral flow immunoassay (Veritor Strep A), false positive signal from saliva samples. The class given is binding. The following applies: saliva from asymptomatic patients; FIGS. 1-4. As to the method:
Saliva samples were collected from four asymptomatic patients and tested with an immunoassay test strip for specificity. Previous studies have reported that samples obtained from the mouth tissues, saliva, cheek and tongue of healthy control patients show high false positive rates for Strep A when assayed via a lateral flow immunoassay. See US20130196337A1.
N-propionyl-D-glucosamine was tested for its ability to inhibit or block the binding of the anti-Strep A polyclonal antibodies in the Strep A immunoassay. Saliva samples from four asymptomatic patients were obtained for testing. Using an immunoassay device for detection of Strep A, the four saliva samples were each treated with the extraction reagents (such as the extraction reagents in a commercially available BD Veritor™ Strep A kit) in the presence of N-propionyl-D-glucosamine, which was dried on the conjugate pad during the spraying of liquid conjugate on the conjugate pad (labeling zone). Different concentrations of N-propionyl-D-glucosamine in an immunoassay were evaluated for inhibition of Strep A false positive signals.

Experiment [5] shares this test system. The experiment is described as follows: Strep A detection assay, agent added to extraction solution (GAS 1+2) without mucin. The class given is binding. Conditions: no mucin, FIG. 11.
Setting [6] is: agent added directly to the sample, Test Standard 1, FIGS. 5-6.
Setting [7] is: high concentration in sample pad or conjugate pad dipping solution, FIG. 8.
Where [8] appears, read: lower concentrations (zero to 12.5 mM tested) in conjugate pad dipping solution, FIG. 9.
Where [9] appears, read: agent mixed with porcine mucin sample, FIG. 10.

For the compound `CCCC(=O)N[C@H]1C(O)O[C@H](CO)[C@@H](O)[C@@H]1O` (stereo partly drawn) [2-N-butanoyl-D-glucosamide], in experiment [1] (setting [6]), the “overall sensitivity of the Veritor Strep A assay” value (from here on “overall sensitivity”) is recorded as “did not significantly reduce”. Moreover, the “false positive signals from porcine mucin samples” value in experiment [2] is “efficiently suppressed”.

For `CC(=O)N[C@H]1C(O)O[C@H](CO)[C@@H](O)[C@@H]1O` (stereo partly drawn) [N-acetyl-D-glucosamine], in experiment [3], the assay sensitivity entry is given as “significant reduction” and the “assay specificity (interference by salivary proteins)” value is given as “can improve assay specificity”.

`CCC(=O)N[C@H]1C(O)O[C@H](CO)[C@@H](O)[C@@H]1O` (stereo partly drawn) [N-propionyl-D-glucosamine]: in experiment [1] (FIG. 1 and FIG. 3), the “overall sensitivity” value was “did not reduce”. The “false positive signals from saliva specimens” value in experiment [4] is given as “efficiently suppressed”.

Regarding “Bis-(2-(D-2-deoxy-glucosaminyl))-PEG3-amide”, the true sensitivity entry in experiment [1] (added in sample, two lots of Strep A devices, FIG. 7) is on record as “slightly inhibited”; in experiment [1] (setting [8]), “without much impact”. For the same compound, in experiment [1] (setting [6]), the “overall sensitivity” value is “did not significantly reduce”. Also, the true signal entry in experiment [1] (setting [7]) was “inhibit”. Moreover, the “mucin induced false positive signal” value in experiment [2] (added in sample, two lots of Strep A devices that previously showed mucin cross-reaction, FIG. 7) is reported as “significantly reducing”. In addition, the false positive signal result in experiment [2] (added to conjugate pad dipping solution and/or sample pad dipping solution, FIG. 8) is recorded as “significantly reduced”. Moreover, the “false positive signals from porcine mucin samples” value in experiment [2] was “efficiently suppressed”. For the same compound, in experiment [2] (setting [7]), the “false positive signal caused by mucin” value is reported as “effectively eliminate”. Also, in experiment [2] (setting [8]), the mucin cross-reaction result is recorded as “effectively eliminate”.

For the compound m-PEG4-glucosamine, the “sensitivity of the Strep A assay” value in experiment [1] is reported as “without significant impact”. Besides, the mucin cross-reaction result in experiment [2] (setting [9]) is listed as “effective in eliminating”.

As for m-PEG6-glucosamine, the “sensitivity of the Strep A assay” value in experiment [1] is “without significant impact”. Besides, the mucin cross-reaction entry in experiment [2] (setting [9]) was “effective in eliminating”.

For the compound m-PEG10-glucosamine, the “sensitivity of the Strep A assay” value in experiment [1] is given as “without significant impact”. The mucin cross-reaction entry in experiment [2] (setting [9]) was “effective in eliminating”.

For m-PEG5000-glucosamine, the “false positive signal when mucin is not present” value in experiment [5] is “no any false positive signal was observed”. Moreover, in experiment [2] (agent added to sample, mucin present, FIG. 11), the “false positive signal caused by mucin” value is reported as “did not reduce the false positive signal caused by mucin, but instead increases the false positive signal; also recorded: does not reduce the false positive signal caused by mucin, but instead increases the false positive signal”.
